Values of other authors in patent US20230355898A1, “NEBULIZER AND NEBULIZED ANTI-VIRALS” (priority 2020, published 2023).
Where a name gives a salt, the structure may show the parent alone. Read-outs that look alike come from different tables or passages of the source.

Experiments:
SARS-CoV-2 [1] = settings: Vero 6, SARS-Cov-2, pretreatment; Si, 2020; read-out: Inhibition of infection IC50
[2] = test system: SARS-CoV-2 pseudoparticulates (pp); settings: Huh-7, SARS-CoV-2pp, concurrent treatment, Si, 2020
SARS-CoV-2 [3] = settings: for prophylactic efficacy in reducing SARS-CoV-2 infection: hamsters, 50 mg/kg SC QD, virus intranasal or by association with nasally infected animals; for SARS-CoV-2 viral load measured by RT-qPCR of the viral N transcript: COVID-19 hamster model, Intraperitoneal (IP) administration; for reduction in viral load or change in disease progression: Rosenke
[4] = test system: SARS-CoV-2 pseudoparticulates; settings: drug at human blood maximum concentrations in fluid and airway channels; Si, 2020
[5] = free base; PubChem
[6] = not given; remark: listed apart in the source
SARS-CoV-2 [7] = settings: Rhesus Macaque, Rosenke, 2020
[8] = rat, in vivo
SARS-CoV-2 [9] = settings: read-out: Viral Replication EC50 @ 48 hr, Vero 6, Concurrent, Wang, 2020
[10] = four-route infection on day 0, 6 mg/kg PO 12 18, 36, 60, 84 and 108 hours post-infection (therapeutic)
[11] = four-route infection on day 0, 6 mg/kg PO on days −9, −2, and 5 (prophylactic)

## CCN(CC)Cc1cc(Nc2ccnc3cc(Cl)ccc23)ccc1O [ADQ, amodiaquine]
SARS-CoV-2 [1]
  IC50: 10.3 µM
human, in vivo, iv
  T1/2: 0.083 days
In vivo, iv
  V2: 39 L
[2]
  Inhibition of viral entry: % entry @ 1 μM: 10% entry @1 μM
  Inhibition of viral entry: % entry @ 5 μM: 30% entry @ 5 μM;
SARS-CoV-2 [3]; Hamster, exposure of healthy animals to nasally infected animals on day 2, 50 mg/kg SC day 1 and days 2, 3, 4, Si, 2020
  reduction in viral load on day 4: 90% reduction in
SARS-CoV-2 [3]; Hamster, nasal infection on day 2, 50 mg/kg SC 1 day before infection and days 2, 3, 4, Si, 2020
  reduction in viral load on day 4: 70% reduction in
SARS-CoV-2 [3]
  prophylactic efficacy in reducing SARS-CoV-2 infection: exhibit prophylactic efficacy

## CCN(CC)Cc1cc(Nc2ccnc3cc(Cl)ccc23)ccc1O.Cl.Cl [ADQ hydrochloride]
[4]
  Inhibition of SARS-CoV-2pp entry into LAC epithelial cells (qPCR of viral mRNA): inhibited
SARS-CoV-2 [3]; Si, 2020
  SARS-CoV-2 viral load measured by RT-qPCR of the viral N transcript: able to reduce
SARS-CoV-2 [3]
  prophylactic efficacy in reducing SARS-CoV-2 infection: effective

## CCNCc1cc(Nc2ccnc3cc(Cl)ccc23)ccc1O [DEAQ, desethylamodiaquine]
SARS-CoV-2 [1]
  IC50: 8.5 µM
[5]
  Log P: 2.3

## CCN(CCO)CCCC(C)Nc1ccnc2cc(Cl)ccc12 (stereo not drawn) [HCQ sulfate, hydroxychloroquine sulfate]
[4]
  Inhibition of SARS-CoV-2pp entry into LAC epithelial cells (qPCR of viral mRNA): lack of efficacy
[6]; nebulized
  clinical endpoints for asthma (Phase II): did not meet its clinical endpoints
[6]; nebulized hypertonic 100 mg/mL, up to 20 mg QD
  tolerability of pulmonary doses: well tolerated with minimal side effects
SARS-CoV-2 [3]; Si, 2020
  SARS-CoV-2 viral load measured by RT-qPCR of the viral N transcript: ineffective
SARS-CoV-2 [3]; Hamster, exposure to nasally infected animals on day 2, 600 mg/kg IP day 1 and 50 mg/kg IP days 2, 3, 4, 5, Kapstein, 2020
  reduction in viral load on day 5: ineffective
SARS-CoV-2 [3]; Hamster, nasal infection on day 1, 50 mg/kg IP 1 hr after infection and days 2, 3 (therapeutic), 2020, 50 mg/kg
  reduction in viral load or change in disease progression: ineffective
SARS-CoV-2 [3]; Hamster, nasal infection on day 2, 50 mg/kg IP 1 day before infection and days 2, 3, 4 (prophylactic), 2020, 50 mg/kg
  reduction in viral load or change in disease progression: ineffective
SARS-CoV-2 [3]; Hamster, nasal infection on day 2, 50 mg/kg IP 1 day before infection and days 2, 3, 4, Kapstein, 2020, 50 mg/kg
  reduction in viral load on day 4: ineffective
SARS-CoV-2 [7]; [10]
  effect upon viral loads at days 3, 5, or 7, or disease pathology through post-mortem on day 7: ineffective
SARS-CoV-2 [7]; [11]
  effect upon viral loads at days 3, 5, or 7, or disease pathology through post-mortem on day 7: ineffective
[8]
  lung drug concentrations, IT versus IV solution: higher lung drug concentrations

## CCN(CC)CCCC(C)Nc1ccnc2cc(Cl)ccc12.O=P(O)(O)O.O=P(O)(O)O (stereo not drawn) [CQ phosphate]
[4]
  Inhibition of SARS-CoV-2pp entry into LAC epithelial cells (qPCR of viral mRNA): lack of efficacy

## CCN(CCO)CCCC(C)Nc1ccnc2cc(Cl)ccc12 (stereo not drawn) [HCQ, hydroxychloroquine]
[5]
  Log P: 3.9
human, in vivo, iv
  T1/2: 26.2 days
In vivo, iv
  V2: 26,711 L
[4]
  Inhibition of SARS-CoV-2pp entry into LAC epithelial cells (qPCR of viral mRNA): repeatedly failed
[2]
  Inhibition of viral entry: % entry @ 1 μM: 30% entry @ 1 μM
  Inhibition of viral entry: % entry @ 5 μM: 50% entry @ 5 μM;
SARS-CoV-2 [7]; [10]
  effect upon viral loads at days 3, 5, or 7, or disease pathology through post-mortem on day 7: No effect upon viral
SARS-CoV-2 [7]; [11]
  effect upon viral loads at days 3, 5, or 7, or disease pathology through post-mortem on day 7: No effect upon viral

## CCN(CC)CCCC(C)Nc1ccnc2cc(Cl)ccc12 (stereo not drawn) [CQ, chloroquine]
SARS-CoV-2 [9]
  EC50: 1.13 µM
IV in humans
  T1/2: 23.7 days
  V2: 7,973 L
[4]
  Inhibition of SARS-CoV-2pp entry into LAC epithelial cells (qPCR of viral mRNA): lack of efficacy
[2]
  Inhibition of viral entry: % entry @ 1 μM: 10% entry @ 1 μM
  Inhibition of viral entry: % entry @ 5 μM: 50% entry @ 5 μM;
